Patent publication US10717716B2, “1,3,4-oxadiazole derivative compounds as histone deacetylase 6 inhibitor, and the pharmaceutical composition comprising the same” (Chong Kun Dang Pharmaceutical Corp., priority 2015, dated 2020)

Tests used:
human recombinant HDAC1 = biological target: T1, human recombinant HDAC1 (Homo sapiens, UniProt Q13547); experiment: HDAC1 enzyme activity inhibition assay (HDAC Fluorimetric Drug Discovery Kit); format: biochemical; conditions: human recombinant HDAC1, Fluor de Lys substrate 10 μM, 30° C. 60 minutes
T1 construct: purchased Enzo Life Science BML-SE456
T1 sequence (Q13547 whole entry): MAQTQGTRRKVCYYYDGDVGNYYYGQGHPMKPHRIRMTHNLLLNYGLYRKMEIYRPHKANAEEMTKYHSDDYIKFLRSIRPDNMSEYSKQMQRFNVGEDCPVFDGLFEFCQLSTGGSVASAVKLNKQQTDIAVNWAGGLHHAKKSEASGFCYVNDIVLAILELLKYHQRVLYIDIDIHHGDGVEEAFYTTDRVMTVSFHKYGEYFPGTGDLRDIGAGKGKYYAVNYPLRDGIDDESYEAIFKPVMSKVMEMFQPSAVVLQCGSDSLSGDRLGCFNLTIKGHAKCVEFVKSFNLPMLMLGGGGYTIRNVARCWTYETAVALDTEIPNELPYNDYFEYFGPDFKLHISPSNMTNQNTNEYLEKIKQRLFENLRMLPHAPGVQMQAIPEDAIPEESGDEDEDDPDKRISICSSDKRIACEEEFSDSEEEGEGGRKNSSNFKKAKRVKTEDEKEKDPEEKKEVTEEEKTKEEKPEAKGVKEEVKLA
Protocol: In order to examine the HDAC6 selectivity of the compounds of formula I of the present invention by HDAC1 and HDAC6 enzymatic activity inhibition assays, an experiment was performed using a conventional substance as a control.
HDAC enzyme activity was measured using a HDAC Fluorimetric Drug Discovery Kit (BML-AK511, 516, Enzo Life Science). For the HDAC1 enzyme activity test, human recombinant HDAC1 (BML-SE456) was used as an enzyme source, and Fluor de Lys®-“SIRT1 (BNL-KI177) was used as a substrate. A 5-fold dilution of the compound was seeded into a 96-well plate, and then 0.3 μg of the enzyme and 10 μM of the substrate were added to each well of the plate and allowed to react at 30° C. for 60 minutes. Then, Fluor de Lys®-Developer II (BML-KI176) was added thereto and allowed to react for 30 minutes, after which the fluorescence value (Ex 360, Em 460) was measured using a multi-plate reader (Flexstation 3, Molecular Device). The HDAC6 enzyme was tested using human recombinant HDAC6 (382180) (Calbiochem) according to the same protocol as the HDAC1 enzyme activity test method. Based on the resulting values, each IC5, value was calculated using GraphPad Prism4.0 program.

human recombinant HDAC6 = biological target: T2, human recombinant HDAC6 (Homo sapiens, UniProt Q9UBN7); experiment: HDAC6 enzyme activity inhibition assay (HDAC Fluorimetric Drug Discovery Kit); format: biochemical; conditions: for HDAC6 selectivity (fold): HDAC6 over HDAC1; for IC50: human recombinant HDAC6, same protocol as HDAC1, read-out: HDAC6
T2 construct: purchased Calbiochem 382180
T2 sequence (Q9UBN7 1-1215): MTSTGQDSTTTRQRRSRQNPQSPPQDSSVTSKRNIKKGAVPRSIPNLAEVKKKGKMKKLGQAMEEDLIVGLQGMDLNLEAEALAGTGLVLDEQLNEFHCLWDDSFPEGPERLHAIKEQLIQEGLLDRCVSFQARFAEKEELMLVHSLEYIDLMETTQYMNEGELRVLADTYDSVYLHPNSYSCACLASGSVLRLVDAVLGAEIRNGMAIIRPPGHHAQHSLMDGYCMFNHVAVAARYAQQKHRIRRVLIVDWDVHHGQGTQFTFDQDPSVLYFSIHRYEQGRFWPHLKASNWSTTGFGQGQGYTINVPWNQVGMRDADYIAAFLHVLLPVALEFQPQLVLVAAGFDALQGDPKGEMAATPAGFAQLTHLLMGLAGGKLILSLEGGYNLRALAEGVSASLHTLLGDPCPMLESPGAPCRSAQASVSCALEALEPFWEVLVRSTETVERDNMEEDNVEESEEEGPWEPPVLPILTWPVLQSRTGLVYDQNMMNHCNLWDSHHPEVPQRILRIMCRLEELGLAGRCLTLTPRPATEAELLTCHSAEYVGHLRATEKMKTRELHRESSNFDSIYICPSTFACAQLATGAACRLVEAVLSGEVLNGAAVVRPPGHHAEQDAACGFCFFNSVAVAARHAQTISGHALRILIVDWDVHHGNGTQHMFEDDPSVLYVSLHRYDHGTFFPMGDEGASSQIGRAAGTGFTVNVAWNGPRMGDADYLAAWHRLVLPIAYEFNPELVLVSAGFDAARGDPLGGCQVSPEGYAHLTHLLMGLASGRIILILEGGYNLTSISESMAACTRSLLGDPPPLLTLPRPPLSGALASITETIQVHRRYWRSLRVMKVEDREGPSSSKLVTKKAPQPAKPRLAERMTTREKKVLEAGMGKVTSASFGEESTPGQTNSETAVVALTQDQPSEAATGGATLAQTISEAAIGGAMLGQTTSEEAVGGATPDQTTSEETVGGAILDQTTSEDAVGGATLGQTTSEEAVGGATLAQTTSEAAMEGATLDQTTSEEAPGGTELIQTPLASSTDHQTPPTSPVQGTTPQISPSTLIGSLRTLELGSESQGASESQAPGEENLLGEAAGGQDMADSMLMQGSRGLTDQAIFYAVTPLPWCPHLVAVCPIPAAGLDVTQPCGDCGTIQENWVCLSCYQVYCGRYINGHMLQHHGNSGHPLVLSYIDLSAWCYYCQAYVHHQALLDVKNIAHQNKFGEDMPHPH
Method in brief: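 Human recombinant HDAC1 or HDAC6 (0.3 μg) reacted with 10 μM Fluor de Lys-SIRT1 substrate and 5-fold compound dilutions for 60 min at 30 °C. Developer II added for 30 min, fluorescence read at Ex 360/Em 460; IC50 calculated from the readings.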

| IC50 (human recombinant HDAC1) [nM] | HDAC6 selectivity (fold) (human recombinant HDAC6) | IC50 (human recombinant HDAC6) [nM] | Structure (SMILES) |
| --- | --- | --- | --- |
| 10000 | 115 | 87 | O=C(N1CCOCC1)N(Cc1ccc(-c2nnc(C(F)(F)F)o2)cc1)c1ccccc1 [Compound 21249, N-phenyl-N-(4-(5-(trifluoromethyl)-1,3,4-oxadiazol-2-yl)benzyl)morpholine-4-carboxamide] |
| 6360 | 68 | 93 | O=C(N1CCS(=O)(=O)CC1)N(Cc1ccc(-c2nnc(C(F)(F)F)o2)cc1)c1ccc(F)cc1 [Compound 21389, N-(4-Fluorophenyl)-N-(4-(5-(trifluoromethyl)-1,3,4-oxadiazol-2-yl)benzyl)thiomorpholine-4-carboxamide 1,1-dioxide] |
| 5280 | 17 | 317 | COc1ccc(N(Cc2ccc(-c3nnc(C(F)(F)F)o3)cc2)C(=O)N2CCS(=O)(=O)CC2)cc1 [Compound 21390, N-(4-methoxyphenyl)-N-(4-(5-(trifluoromethyl)-1,3,4-oxadiazol-2-yl)benzyl)thiomorpholine-4-carboxamide 1,1-dioxide] |
| 8960 | 65 | 137 | O=C(N1CCS(=O)(=O)CC1)N(Cc1ccc(-c2nnc(C(F)(F)F)o2)cc1)c1cccc(Br)c1 [Compound 21393, N-(3-bromophenyl)-N-(4-(5-(trifluoromethyl)-1,3,4-oxadiazol-2-yl)benzyl)thiomorpholine-4-carboxamide 1,1-dioxide] |
| 3380 | 12 | 286 | O=C(N1CCS(=O)(=O)CC1)N(Cc1ccc(-c2nnc(C(F)(F)F)o2)cc1)c1cccc(-c2ccoc2)c1 [Compound 21435, N-(3-(furan-3-yl)phenyl)-N-(4-(5-(trifluoromethyl)-1,3,4-oxadiazol-2-yl)benzyl)thiomorpholine-4-carboxamide 1,1-dioxide] |
| 5730 | 13 | 433 | O=C(N1CCS(=O)(=O)CC1)N(Cc1ccc(-c2nnc(C(F)(F)F)o2)cc1)c1cccc(-c2cccnc2)c1 [Compound 21436, N-(3-(pyridin-3-yl)phenyl)-N-(4-(5-(trifluoromethyl)-1,3,4-oxadiazol-2-yl)benzyl)thiomorpholine-4-carboxamide 1,1-dioxide] |
| 8220 | 11 | 740 | O=C(N1CCS(=O)(=O)CC1)N(Cc1ccc(-c2nnc(C(F)(F)F)o2)cc1)c1cccc(-c2ccc3c(c2)OCO3)c1 [Compound 21437, N-(3-(benzo[d][1,3]dioxol-5-yl)phenyl)-N-(4-(5-(trifluoromethyl)-1,3,4-oxadiazol-2-yl)benzyl)thiomorpholine-4-carboxamide 1,1-dioxide] |
| 2700 | 4 | 750 | Cn1ncc2ccc(-c3cccc(N(Cc4ccc(-c5nnc(C(F)(F)F)o5)cc4)C(=O)N4CCS(=O)(=O)CC4)c3)cc21 [Compound 21438, N-(3-(1-methyl-1H-indazol-6-yl)phenyl)-N-(4-(5-(trifluoromethyl)-1,3,4-oxadiazol-2-yl)benzyl)thiomorpholine-4-carboxamide 1,1-dioxide] |
|  | 101 | 99 | O=C(N1CCS(=O)(=O)CC1)N(Cc1ccc(-c2nnc(C(F)F)o2)cc1F)c1ccsc1 [Compound 22021, N-(4-(5-(Difluoromethyl)-1,3,4-oxadiazol-2-yl)-2-fluorobenzyl)-N-(thiophen-3-yl)thiomorpholine-4-carboxamide 1,1-dioxide] |
|  | 36 | 281 | CCN1CCN(Cc2cccc(N(Cc3ccc(-c4nnc(C(F)F)o4)cc3F)C(=O)N3CCS(=O)(=O)CC3)c2)CC1 [Compound 22024, N-(4-(5-(difluoromethyl)-1,3,4-oxadiazol-2-yl)-2-fluorobenzyl)-N-(3-((4-ethylpiperazin-1-yl)methyl)phenyl)thiomorpholine-4-carboxamide 1,1-dioxide] |
